# In ChEMBL document CHEMBL6178005, “Novel Nonpeptide as Oxytocin Receptor Agonist” (ACS Med Chem Lett, 2025):
# Target: Vasopressin V1a receptor (Homo sapiens, UniProt P37288)
# Assay: Antagonist activity at vasopressin V1A receptor (unknown origin) assessed as calcium level
# Format: functional
# Sequence of Vasopressin V1a receptor (P37288 whole entry): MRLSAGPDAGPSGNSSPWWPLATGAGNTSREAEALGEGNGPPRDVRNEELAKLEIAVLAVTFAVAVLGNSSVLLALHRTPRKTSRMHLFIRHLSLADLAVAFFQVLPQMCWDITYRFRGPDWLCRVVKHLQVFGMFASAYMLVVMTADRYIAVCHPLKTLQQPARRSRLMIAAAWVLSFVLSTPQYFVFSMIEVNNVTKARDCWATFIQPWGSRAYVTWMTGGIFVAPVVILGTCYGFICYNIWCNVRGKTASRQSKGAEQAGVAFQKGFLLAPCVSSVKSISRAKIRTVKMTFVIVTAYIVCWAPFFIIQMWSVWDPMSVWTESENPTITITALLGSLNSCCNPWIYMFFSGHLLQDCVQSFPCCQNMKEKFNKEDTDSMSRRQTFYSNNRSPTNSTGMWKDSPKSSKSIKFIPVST
row,IC50,Structure (SMILES)
1,2430 nM,Cc1cc(C(=O)N2Cc3cnn(C)c3Nc3ccccc32)ccc1CNC(=O)N1C[C@H](OCc2cc(O)cc(O)c2)C[C@H]1C(=S)N(C)C
2,585 nM,Cc1cc(C(=O)N2Cc3cnn(C)c3Nc3ccccc32)ccc1CNC(=O)N1C[C@H](OCCO)C[C@H]1C(=S)N(C)C
